Experimental data from ChEMBL document CHEMBL5390237, “Discovery of Selective Histone Deacetylase 1 and 2 Inhibitors: Screening of a Focused Library Constructed by Click Chemistry, Kinetic Binding Analysis, and Biological Evaluation” (J Med Chem, 2023).

Biological target: Histone deacetylase 2 (Homo sapiens, UniProt Q92769)
Test: Inhibition of full-length recombinant human C-terminal GST tagged HDAC2 expressed in Sf9 insect cells using aminoluciferin peptide substrate at 100 nM preincubated for 3 hrs followed by substrate addition and measured after 30 mins by HDAC-Glo I/II chemiluminescence assay
Conditions: time 3.5 hrs

Histone deacetylase 2, sequence (Q92769 whole entry): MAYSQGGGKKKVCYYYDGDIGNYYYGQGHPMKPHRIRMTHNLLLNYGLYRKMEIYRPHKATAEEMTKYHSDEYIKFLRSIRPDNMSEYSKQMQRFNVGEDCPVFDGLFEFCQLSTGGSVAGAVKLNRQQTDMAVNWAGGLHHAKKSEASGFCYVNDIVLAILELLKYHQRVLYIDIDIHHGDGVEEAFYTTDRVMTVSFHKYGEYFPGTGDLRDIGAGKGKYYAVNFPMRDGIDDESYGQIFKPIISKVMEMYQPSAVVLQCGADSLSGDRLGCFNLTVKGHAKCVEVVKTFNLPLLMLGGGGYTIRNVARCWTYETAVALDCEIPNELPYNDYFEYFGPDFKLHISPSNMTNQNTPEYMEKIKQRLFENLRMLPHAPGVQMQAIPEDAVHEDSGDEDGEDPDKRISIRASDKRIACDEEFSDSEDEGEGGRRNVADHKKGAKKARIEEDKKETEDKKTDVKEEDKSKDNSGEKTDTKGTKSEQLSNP

Row | inhibition [%] | Compound
1 | 24 | Nc1ccc(-c2cccs2)cc1NC(=O)CCc1cn(/C=C/c2ccccc2)nn1
2 | 0 | CCc1ccc(Cn2cc(C(=O)Nc3cc(-c4ccccc4)ccc3N)nn2)cc1
3 | 15 | Nc1ccc(-c2cccnc2)cc1NC(=O)CCc1cn(CCc2cccc([N+](=O)[O-])c2)nn1
4 | 0 | Nc1ccc(-c2ccccc2)cc1NC(=O)CCc1cn(CCCCCCC(=O)O)nn1
5 | 0 | Nc1ccc(-c2ccccc2)cc1NC(=O)c1cn(CCc2ccc([N+](=O)[O-])cc2)nn1
6 | 12 | Nc1ccc(-c2cccnc2)cc1NC(=O)CCc1cn(Cc2cccc3ccccc23)nn1
7 | 15 | Nc1ccc(-c2cccnc2)cc1NC(=O)CCc1cn(CCCc2ccccc2)nn1
8 | 20 | Nc1ccc(-c2cccs2)cc1NC(=O)c1ccc(-c2cn(-c3ccc(O)cc3)nn2)s1
9 | 23 | Nc1ccc(-c2cccnc2)cc1NC(=O)CCc1cn(CCc2ccccc2)nn1
10 | 0 | Nc1ccc(-c2cccs2)cc1NC(=O)c1cccc(-c2cn(CC3CCCCC3)nn2)c1
11 | 5 | Nc1ccc(-c2cccs2)cc1NC(=O)CCc1cn(CCC23CC4CC(CC(C4)C2)C3)nn1
12 | 18 | Nc1ccc(-c2ccccc2)cc1NC(=O)CCc1cn(Cc2ccc3ccccc3n2)nn1
13 | 0 | Nc1ccc(-c2cccnc2)cc1NC(=O)CCc1cn(CC(=O)Nc2ccc(F)cc2)nn1
14 | 0 | Nc1ccc(-c2ccccc2)cc1NC(=O)CCc1cn(CC2CCCCC2)nn1
15 | 34 | COc1ccc(CCn2cc(CCC(=O)Nc3cc(-c4ccc(F)cc4)ccc3N)nn2)cc1
16 | 0 | Nc1ccc(-c2ccc(F)cc2)cc1NC(=O)CCc1cn(CCC23CC4CC(CC(C4)C2)C3)nn1
17 | 0 | Nc1ccc(-c2cccs2)cc1NC(=O)c1ccc(-c2cn(CCC34CC5CC(CC(C5)C3)C4)nn2)s1
18 | 0 | Nc1ccc(-c2ccsc2)cc1NC(=O)CCc1cn(Cc2ccc(OC(F)(F)F)cc2)nn1
19 | 10 | Nc1ccc(-n2cc(C(=O)Nc3cc(-c4cccs4)ccc3N)nn2)cc1
20 | 14 | Cc1ccccc1CCn1cc(CCC(=O)Nc2cc(-c3ccsc3)ccc2N)nn1
21 | 0 | Nc1ccc(-c2ccc(F)cc2)cc1NC(=O)c1cn(CCc2cccc(C(F)(F)F)c2)nn1
22 | 2 | Nc1ccc(-c2ccccc2)cc1NC(=O)CCc1cn(-c2ccccc2-c2ccccc2)nn1
23 | 30 | Nc1ccc(-c2cccs2)cc1NC(=O)CCc1cn(CC(=O)Nc2ccc(F)cc2)nn1

Row | inhibition [%] | Compound
24 | 31 | Nc1ccc(-c2ccsc2)cc1NC(=O)CCc1cn(CCc2ccc(C(=O)O)cc2)nn1
25 | 0 | Nc1ccc(-c2ccc(F)cc2)cc1NC(=O)c1cn(CCc2cccc3ccccc23)nn1
26 | 21 | Nc1ccc(-c2ccc(F)cc2)cc1NC(=O)c1cn(CCCc2ccccc2)nn1
27 | 9 | Nc1ccc(-c2cccs2)cc1NC(=O)c1cn(CCCc2ccccc2)nn1
28 | 27 | Nc1ccc(-c2ccc(F)cc2)cc1NC(=O)c1cn(Cc2ccc3ccccc3n2)nn1
29 | 16 | Nc1ccc(-c2cccnc2)cc1NC(=O)CCc1cn(CCCCCc2ccccc2)nn1
30 | 23 | Nc1ccc(-c2cccs2)cc1NC(=O)c1ccc(-c2cn(CCc3cccc([N+](=O)[O-])c3)nn2)s1
31 | 17 | Nc1ccc(-c2ccsc2)cc1NC(=O)c1cn(CCc2ccccc2)nn1
32 | 5 | Cc1ccc(-n2cc(-c3cccc(C(=O)Nc4cc(-c5cccs5)ccc4N)c3)nn2)cc1C
33 | 6 | CCc1ccc(Cn2cc(CCC(=O)Nc3cc(-c4ccsc4)ccc3N)nn2)cc1
34 | 0 | Nc1ccc(-c2cccs2)cc1NC(=O)c1cn(CCC2CCCC2)nn1
35 | 0 | Nc1ccc(-c2ccccc2)cc1NC(=O)c1cn(CS(=O)(=O)c2ccccc2)nn1
36 | 0 | Nc1ccc(-c2cccnc2)cc1NC(=O)CCc1cn(CCCCCC(=O)O)nn1
37 | 20 | Nc1ccc(-c2ccc(F)cc2)cc1NC(=O)c1cn(CCCCCC(=O)O)nn1
38 | 6 | COc1ccc(Cn2cc(CCC(=O)Nc3cc(-c4ccccc4)ccc3N)nn2)cc1
39 | 0 | Cc1ccccc1CCn1cc(C(=O)Nc2cc(-c3cccs3)ccc2N)nn1
40 | 12 | Nc1ccc(-c2cccs2)cc1NC(=O)c1ccc(-c2cn(Cc3ccc4ccccc4c3)nn2)cc1
41 | 0 | Nc1ccc(-c2ccsc2)cc1NC(=O)CCc1cn(Cc2cccc(-c3ccccc3)c2)nn1
42 | 22 | Nc1ccc(-c2ccsc2)cc1NC(=O)CCc1cn(CCc2c[nH]c3ccccc23)nn1
43 | 0 | Nc1ccc(-c2ccsc2)cc1NC(=O)c1cn(CCc2ccc([N+](=O)[O-])cc2)nn1
44 | 0 | Nc1ccc(-c2ccsc2)cc1NC(=O)c1cn(CC2CCCCC2)nn1
45 | 5 | Cc1cccc(CCn2cc(-c3cccc(C(=O)Nc4cc(-c5cccs5)ccc4N)c3)nn2)c1
46 | 0 | Cc1ccccc1CCn1cc(-c2ccc(C(=O)Nc3cc(-c4cccs4)ccc3N)cc2)nn1

Row | inhibition [%] | Compound
47 | 0 | Nc1ccc(-c2ccsc2)cc1NC(=O)c1cn(CCc2cccc(C(F)(F)F)c2)nn1
48 | 0 | Nc1ccc(-c2ccsc2)cc1NC(=O)CCc1cn(-c2cccc3ccccc23)nn1
49 | 0 | COc1ccc(CCn2cc(C(=O)Nc3cc(-c4ccccc4)ccc3N)nn2)cc1
50 | 7 | Nc1ccc(-c2ccc(F)cc2)cc1NC(=O)c1cn(CS(=O)(=O)c2ccccc2)nn1
51 | 6 | Cc1csc(CCn2cc(CCC(=O)Nc3cc(-c4cccnc4)ccc3N)nn2)n1
52 | 0 | Nc1ccc(-c2ccccc2)cc1NC(=O)c1cn(CC(=O)Nc2ccc(F)cc2)nn1
53 | 5 | COc1ccccc1CCn1cc(C(=O)Nc2cc(-c3ccc(F)cc3)ccc2N)nn1
54 | 7 | Nc1ccc(-c2ccc(F)cc2)cc1NC(=O)CCc1cn(-c2ccc([N+](=O)[O-])cc2)nn1
55 | 0 | Nc1ccc(-c2cccs2)cc1NC(=O)CCc1cn(CCc2ccccc2C(F)(F)F)nn1
56 | 0 | Nc1ccc(-c2ccsc2)cc1NC(=O)c1cn(CCc2ccsc2)nn1
57 | 9 | Nc1ccc(-c2ccccc2)cc1NC(=O)c1cn(CCc2ccc(C(=O)O)cc2)nn1
58 | 20 | Nc1ccc(-c2cccs2)cc1NC(=O)c1cn(Cc2nc3ccccc3[nH]2)nn1
59 | 16 | Nc1ccc(-c2ccsc2)cc1NC(=O)CCc1cn(-c2ccc(O)cc2)nn1
60 | 20 | Nc1ccc(-c2ccc(F)cc2)cc1NC(=O)c1cn(CCc2cccc([N+](=O)[O-])c2)nn1
61 | 0 | Nc1ccc(-c2cccs2)cc1NC(=O)c1ccc(-c2cn(Cc3cccc(-c4ccccc4)c3)nn2)cc1
62 | 48 | Nc1ccc(-c2cccs2)cc1NC(=O)c1cccc(-c2cn(CCN3CCOCC3)nn2)c1
63 | 0 | Nc1ccc(-c2ccccc2)cc1NC(=O)c1cn(CCc2cccc(C(F)(F)F)c2)nn1
64 | 0 | Nc1ccc(-c2ccsc2)cc1NC(=O)c1cn(CCN2CCOCC2)nn1
65 | 30 | Cc1cccc(CCn2cc(CCC(=O)Nc3cc(-c4cccnc4)ccc3N)nn2)c1
66 | 18 | Nc1ccc(-c2ccsc2)cc1NC(=O)c1cn(CCN2CCc3ccccc3C2)nn1
67 | 0 | Nc1ccc(-c2cccs2)cc1NC(=O)c1cn(-c2ccc(Br)cc2)nn1
68 | 12 | Nc1ccc(-c2ccc(F)cc2)cc1NC(=O)c1cn(CCc2ccc([N+](=O)[O-])cc2)nn1
69 | 0 | Cc1ccc(-n2cc(C(=O)Nc3cc(-c4ccccc4)ccc3N)nn2)cc1C
